We go through 15 compounds from patent publication US6605628B1, “Method of using 5-(arysulfonyl)-, 5-(arylsulfanyl)-and 5-(arylsulfanyl)thiazolidine-2,4-diones for inhibition of farnesyl-protein transferase” (Wyeth Holdings Corporation, priority 2001, dated 2003).

Data set [1] deals with T1, FPTase (Homo sapiens, UniProt P49354+P49356). Nature of the data set: in vitro FTase Inhibition Assay, H-Ras used as substrate for farnesylation. Particulars: Table I, read-out: IC50 H-Ras*. It is filed as biochemical.
Data set [2] has as its target T1, FPTase. Nature of the data set: in vitro FTase Inhibition Assay, K-Ras used as substrate for farnesylation. It is filed as biochemical. As to conditions: Table I.

Broadly, the IC50 is the point on the concentration scale where inhibition reaches its midpoint. Broadly, the melting point is the temperature of the solid-liquid transition. For `Cc1cc(Cl)ccc1C#CCCCC1(S(=O)(=O)c2ccc(I)cc2)SC(=O)NC1=O` (stereo not drawn) [Example 141, 5-(5-(4-Chloro-2-methylphenyl)-pent-4-ynyl]-5-(4-iodobenzene-sulfonyl)-thiazolidine-2,4-dione], the melting point lay within 93 to 99 °C. Moreover, on FPTase [1], the IC50 was in the range of 21 to 32 nM. For the same compound, the IC50 at FPTase [2] is 300 to 340 nM.

As to `Cc1ccc(Cl)cc1C#CCCCC1(S(=O)(=O)c2ccc(OC(F)(F)F)cc2)SC(=O)NC1=O` (stereo not drawn) [Example 139, 5-[5-(5-Chloro-2-methylphenyl)pent-4-ynyl]-5-(4-trifluoromethoxybenzene-sulfonyl)-thiazolidine-2,4-dione], the melting point is 196 °C (dec.). Further, the IC50 on FPTase [1] was in the range of 140 to 170 nM. Moreover, the IC50 at FPTase [2] lay within 600 to 5000 nM.

For `COc1ccc(S(=O)(=O)C2(CCCC#Cc3cccs3)SC(=O)NC2=O)cc1` (stereo not drawn) [Example 166, 5-(4-Methoxybenzenesulfonyl)-5-(5-thiophen-2-yl-pent-4-ynyl)-thiazolidine-2,4-dione], the melting point is 60 to 66 °C. Further, the IC50 on FPTase [1] stood at 150 nM. This compound also came in with a half-inhibitory concentration (IC50) on FPTase [2] of 5300 nM.

Take `Cc1ccc(S(=O)(=O)C2(CCCC#Cc3ccc(S(C)(=O)=O)cc3)SC(=O)NC2=O)cc1` (stereo not drawn) [Example 159, 5-[5-(4-Methanesulfonylphenyl)-pent-4-ynyl]-5-(toluene-4-sulfonyl)-thiazolidine-2,4-dione]: the melting point is 190 to 193 °C. In addition, at FPTase [1], the IC50 turned out to be 650 nM. Further, the IC50 against FPTase [2] was above 10000 nM.

For `Cc1ccc([N+](=O)[O-])cc1C#CCCCC1(S(=O)(=O)c2ccc(I)cc2)SC(=O)NC1=O` (stereo not drawn) [Example 125, 5-(4-Iodobenzenesulfonyl)-5-[5-(2-methyl-5-nitrophenyl)pent-4-ynyl]-thiazolidine-2,4-dione], the melting point was 188 to 190 °C. At FPTase [1], the IC50 turned out to be 30 nM. The same compound returned an IC50 at FPTase [2] of 400 nM.

`COc1ccc(S(=O)(=O)C2(CCCC#Cc3cc(NC(=O)OC(C)(C)C)ccc3C)SC(=O)NC2=O)cc1` (stereo not drawn) [Example 150, (3-{5-[5-(4-Methoxybenzenesulfonyl)-2,4-dioxothiazolidin-5-yl]pent-1-ynyl}-4-methylphenyl)carbamic Acid tert-Butyl Ester] gave a melting point of 116 to 118 °C. Moreover, the IC50 on FPTase [1] lay within 7.4 to 32 nM. The IC50 on FPTase [2] lay in the range of 16 to 68 nM.

For `COc1ccc(S(=O)(=O)C2(CCCC#Cc3ccc(C)cc3C)SC(=O)NC2=O)cc1` (stereo not drawn) [Example 136, 5-[5-(2,4-Dimethylphenyl)pent-4-ynyl]-5-(4-methoxybenzenesulfonyl)-thiazolidine-2,4-dione], the melting point lay within 155 to 156 °C. The IC50 on FPTase [1] lay within 43 to 50 nM. Further, the IC50 against FPTase [2] is 1000 to 1900 nM.

For `COc1ccc(S(=O)(=O)C2(CCCC#Cc3cc(C(=O)NC(C)(C)C)ccc3C)SC(=O)NC2=O)cc1` (stereo not drawn) [Example 152, N-tert-Butyl-3-{5-[5-(4-methoxybenzenesulfonyl)-2,4-dioxothiazol-idin-5-yl]pent-1-ynyl}-4-methyl-benzamide], the melting point was in the range of 205 to 208 °C. At FPTase [1], the IC50 was 11 to 16 nM. Moreover, the half-inhibitory concentration (IC50) at FPTase [2] fell in the range of 100 to 230 nM.

`Cc1ccc([N+](=O)[O-])cc1C#CCCCC1(S(=O)(=O)c2cccc3ccccc23)SC(=O)NC1=O` (stereo not drawn) [Example 126, 5-[5-(2-Methyl-5-nitrophenyl)-pent-4-ynyl]-5-(naphthalene-1-sulfonyl)-thiazolidine-2,4-dione] had a melting point of 168 to 172 °C. Moreover, at FPTase [1], the 50% inhibitory concentration (IC50) was determined as 90 nM. For the same compound, the half-inhibitory concentration (IC50) against FPTase [2] is 1700 nM.

`O=C1NC(=O)C(CCCC#Cc2ccc(Cl)cc2)(S(=O)(=O)c2ccc(Oc3ccccc3)cc2)S1` (stereo not drawn) [Example 106, 5-[5-(4-Chlorophenyl)pent-4-ynyl]-5-(4-phenoxybenzenesulfonyl)-thiazolidine-2,4-dione] displayed a melting point of 193 to 194 °C. In addition, the IC50 on FPTase [1] fell in the range of 230 to 250 nM. For the same compound, the IC50 against FPTase [2] was in the range of 1300 to 1700 nM.

`COc1ccc(S(=O)(=O)C2(CCCC#Cc3cccc(Cl)c3)SC(=O)NC2=O)cc1` (stereo not drawn) [Example 102, 5-[5-(3-Chlorophenyl)pent-4-ynyl]-5-(4-methoxybenzenesulfonyl)thiazolidine-2,4-dione] registered a melting point of 134 to 136 °C. For the same compound, on FPTase [1], the IC50 was in the range of 30 to 32 nM. Moreover, the IC50 against FPTase [2] came to 1400 nM.

As for `O=C1NC(=O)C(CCCC#Cc2ccc(Cl)cc2)(S(=O)(=O)c2cccc3ccccc23)S1` (stereo not drawn) [Example 113, 5-[5-(4-Chlorophenyl)pent-4-ynyl]-5-(naphthalene-1-sulfonyl)-thiazolidine-2,4-dione], the melting point was in the range of 172 to 174 °C. Further, the IC50 on FPTase [1] is 50 to 60 nM. The compound also yielded an IC50 against FPTase [2] of 750 to 800 nM.

Take `O=C1NC(=O)C(CCCC#Cc2ccc(Cl)cc2)(S(=O)(=O)c2ccc(I)cc2)S1` (stereo not drawn) [Example 104, 5-[5-(4-Chlorophenyl)pent-4-ynyl]-5-(4-iodobenzenesulfonyl)thiazolidine-2,4-dione]: the melting point was 157 to 159 °C. Moreover, the IC50 at FPTase [1] was in the range of 30 to 54 nM. The same compound yielded an IC50 against FPTase [2] of 230 to 900 nM.

`COc1ccc(S(=O)(=O)C2(CCCC#Cc3ccc(Cl)cc3Cl)SC(=O)NC2=O)cc1` (stereo not drawn) [Example 117, 5-[5-(2,4-Dichlorophenyl)pent-4-ynyl]-5-(4-methoxybenzenesulfonyl)-thiazolidine-2,4-dione]: the melting point was 129 to 133 °C. The IC50 at FPTase [1] lay in the range of 20 to 30 nM. This compound also displayed an IC50 at FPTase [2] of 510 to 1000 nM.

For `COc1ccc(S(=O)(=O)C2(CCCC#Cc3ccc(OC(F)(F)F)cc3)SC(=O)NC2=O)cc1` (stereo not drawn) [Example 154, 5-(4-Methoxybenzenesulfonyl)-5-[5-(4-trifluoromethoxyphenyl)pent-4-ynyl]thiazolidine-2,4-dione], the melting point was 120 to 123 °C. For the same compound, the IC50 on FPTase [1] was 70 to 150 nM. In addition, the IC50 against FPTase [2] fell in the range of 1000 to 2500 nM.
